Measurements: patent US6319951A, “Use of 3-amino-4-hydroxybenzoic acid for the treatment of retroviral infections” (priority 1996, dated 2001)
≈ marks a conversion by molar mass, not a printed value. Where “and” joins values, the source holds several entries; their conditions need not be identical. Identical values can stand only once. Entries after “also recorded” stand apart in the source; their conditions may differ. Like-named read-outs stand apart in the source and are kept apart here.

Assays:
HIV [1] = assay: inactivation of HIV cultivated in human lymphocytes (minimum inhibitory concentration); assay type: cell-based
human lymphocytes = assay: adverse effect on human lymphocytes in HIV culture; assay type: cell-based; conditions: at minimum concentration of 0.5 mg/l
[2] = Therapeutic Index determination
Description: The Therapeutic Index of 3-amino-4-hydroxybenzoic acid has been determined. International pharmacological principles demand that for human safety the Therapeutic Index of any drug to be used for human treatment should be greater than a unit, i.e. 1. If the Index is greater than 1, patients can take the drug without medical supervision and without experiencing adverse effects. There are, however, cases where therapeutic indices are less than 1 where the benefits outweigh the risks. This holds in the administration of anti-cancer drugs which mandate the availability of competent medical supervision. The reason behind this is that the drugs are supposed to destroy cancerous human cells. The difference between normal human cells and cancerous human cells is, as expected, minimal. It is expected that the difference between HIV and normal human cells would be colossal.
Therapeutic Index for 3-amino-4-hydroxybenzoic acid is: [formula]
The index for 3-amino-4-hydroxybenzoic acid is 40,000 which is good mathematical proof to back the safety of 3-amino-4-hydroxybenzoic acid as a drug to treat HIV.

Herpes simplex = assay: antimicrobial activity, Herpes simplex
HIV [3] = assay: antimicrobial activity, HIV
Neisseria gonorrhoeae = assay: antimicrobial activity, Neisseria gonorrhoeae
Treponema pallidum = assay: antimicrobial activity, Treponema pallidum
Escherchia coli = assay: antimicrobial activity, Escherichia coli
Candida albicans = assay: antimicrobial activity, fungi, Candida albicans
Trichomona vapinalis = assay: antimicrobial activity, protozoan Trichomonas
HIV [4] = assay: dipping HIV into aqueous 3-amino-4-hydroxybenzoic acid; conditions: aqueous solution, 30 seconds
Description: This duration is too short to be an inhibition of protein synthesis. It could only be an irreversible binding of the viral coat at gp120, gp160 or gp41 thereby making the virus fail to attach itself to the CD4 surface markers of target cells. […] It may also inactivate the lytic enzyme essential for HIV entry into the host cell as it does for hyaluronidase.

gonorrhoeae = assay: patient with gonorrhoea treated orally; assay type: in vivo, human; conditions: 1.6 g orally
Method: (§1) When a patient, with a frankly discharging gonorrhoeae was given 1.6 g of 3-amino-4-hydroxybenzoic acid orally, the discharge ceased in 12 hours but recurred in the 24th hour after treatment.

[5] = absorption and excretion inferred from oral treatment of gonorrhoea patient; assay type: in vivo, human; conditions: 1.6 g
Method: as §1

safety study on chicken = assay type: in vivo; conditions: oral, 9 days, up to 400.6 mg/kg
Description: A chicken of 500 g was used and 3-amino-4-hydroxybenzoic acid in water was forced down the esophagus using a plastic syringe over 9 days.

safety study on rabbit = assay type: in vivo; conditions: intraperitoneal, 9 days, up to 133.3 mg/kg
[6] = safety study on human volunteers; assay type: in vivo; conditions: 7 volunteers, oral; person 1: 200 mg stat and 200 mg tds x 2/52; person 3: 800 mg stat
Description: Safety Study on Human Volunteers
Dose & Frequency of 3- Total 3-amino-4-
amino-4-hydroxybenzoic hydroxybenzoic acid
Person acid Intake mg/kg
Each person took 3-amino-4-hydroxybenzoic acid orally.

[7] = adverse effects in HIV/AIDS patients; assay type: in vivo, human
Description: Our experience in using 3-amino-4-hydroxybenzoic acid to treat HIV/AIDS has shown only one non-uniform adverse effect. […] In the case of 3-amino-4-hydroxybenzoic acid, this occasional side effect can be averted by feeding before administration, giving a flavouring agent before administration or preparing the medicament in capsule form. The nausea is temporary. The medicament is preferably taken for approximately 28 days.

HIV [8] = assay type: in vivo
Method: Clinical observations on HIV/AIDS Patients Treated with 3-amino-4-hydroxybenzoic acid
Treatment was administered orally to each patient taking 200 mg of 3-amino-4-hydroxybenzoic acid tds for 14 days.

HIV [9] = assay: T-cell observations after HIV/AIDS treatment (Example 4); assay type: in vivo
Method: Symptomatic and asymptomatic seropositive individuals were treated with 3-amino-4-hydroxybenzoic acid (200 mg tds orally) for two weeks. CD4 :CD8 ratios were taken before and three months after treatment. […] Based on its inherent ability to inactivate HIV in vitro it is probable that 3-amino-4-hydroxybenzoic acid suppresses or inactivates the HIV in affected individuals.
The individuals were taken randomly as they became available (3 male and 4 female). Their T-cell counts were taken before treatment and three months after treatment. They were given 3-amino-4-hydroxybenzoic acid as 200 mg tds orally and followed on daily basis as they took 3-amino-4-hydroxybenzoic acid for two weeks. Thereafter they were followed weekly for the first month after finishing the course of medicine and then monthly.

HIV [10] = assay: T-cell counts of patients JE001-JE0015, once daily dosing (Example 5); assay type: in vivo
Method: These were made on patients JE001-JE0015 who received 200 mg of 3-amino-4-hydroxybenzoic acid orally only once per day for two weeks and whose T-cell counts were analysed after only 6 weeks.
Continuous study of viral load by quantitative PCR when available will show the optimum dose and duration of administration of 3-amino-4-hydroxybenzoic acid.
An explanation is that the CD4 cells which carry HIV die after 3-amino-4-hydroxybenzoic acid kills the virus in them. Later as the precursor cells form other CD4 s without HIV to destroy them, the total CD4 count will be found even higher than before treatment.

HIV [11] = assay: trial based on clinical and haematological findings (Example 5); assay type: in vivo
Description: In addition, trial based on clinical and haematological findings have shown the following observations.

HIV [12] = assay: electron microscopy of patient blood (Example 6); assay type: in vivo; conditions: two patients, before treatment and 28 days after
Description: (§2) Blood samples were taken for electron microscopy and HIV culture before and after treatment of two patients.

HIV [13] = assay: HIV culture from patient blood (Example 6); assay type: in vivo
Description: as §2

water solubility = assay type: physicochemical
hyaluronidase = conditions: acrosomal proteolytic enzyme of sperm; cited from earlier work
HIV [14] = assay type: in vivo; remark: listed apart in the source
HIV [15] = conditions: in presence of normal serum iron; cited from earlier work
HIV [16] = conditions: reported for AZT; cited from earlier work
[17] = 200 mg tds oral, 14 days, patient three (1)
[18] = 200 mg tds orally, two weeks, before vs three months after treatment
[19] = per patient, 200 mg tds orally, two weeks, three months after treatment
[20] = patient three (8), in 6 months of treatment

Nc1cc(C(=O)O)ccc1O [3-amino-4-hydroxybenzoic acid]
MIC (HIV [1]; Human immunodeficiency virus 1, HIV cultivated in human lymphocytes, read-out: minimum inhibitory concentration / minimum concentration inactivating cultivated HIV): 0.5 µg/mL (≈ 3.27 µM) | inactivation of cultivated HIV (HIV [1]; in vitro, cultivated HIV): completely inactivate cultivated HIV | adverse effect to the lymphocytes (human lymphocytes): without any adverse effect to the lymphocytes | Therapeutic Index [2]: 40,000 | selectivity ratio [2]: 40000 | antimicrobial activity (Herpes simplex): established | antimicrobial activity (HIV [3]): established | antimicrobial activity (Neisseria gonorrhoeae): established | antimicrobial activity (Treponema pallidum): established | antimicrobial activity (Escherchia coli): established | antimicrobial activity (Candida albicans): established | antimicrobial activity (Trichomona vapinalis): established | infectivity of HIV after dipping (HIV [4]): renders the virus uninfective | bacteriostatic effect (gonorrhoeae): bacteriostatic | time to cessation of gonorrhoeal discharge (gonorrhoeae): 12 h | absorption from the gut / excretion [5]: sufficiently absorbed from the gut; also recorded: well absorbed and excreted | adverse effects (safety study on chicken): no adverse effects observed | adverse effects (safety study on rabbit): no adverse effects observed | persons experiencing nausea [6]: Only persons 1 and 3 experienced nausea without vomiting | adverse effect ([7]; HIV/AIDS patients): nausea and vomiting in the very weak | side effects noted ([7]; chicken, rabbit, sheep and human volunteers): Only tolerable nausea and occasional vomiting | body weight after treatment (HIV [8]; [17]): 48 kg | haemoglobin after treatment (HIV [8]; [17]): 16% | lymphocytes (relative) after treatment (HIV [8]; [17]): 49% | body weight before treatment (HIV [8]; 200 mg tds oral, 14 days, patient three (1), baseline): 44 kg | clinical, haematological and weight gain assessment (HIV [8]; about 20 patients): found to improve | average weight gain (HIV [8]; average patient, within the first month): 5 kg | signs and symptoms (HIV [8]; patient five (3), after 2 weeks): the signs and symptoms were over | standing and walking unaided (HIV [8]; patient four (9)): By the third day they could stand and walk unaided | time until diarrhoea ceased (HIV [8]; patient four (9)): 24 h | vomiting and diarrhoea (HIV [8]; patient four (9)): over by the third day | health at follow-up (HIV [8]; patient four (9), 22.1.95 and May 19th 1995): in perfect health on 22.1.95 | serum iron (HIV [8]; patient four (9), all along the time of treatment): normal | wounds healed, signs and symptoms over (HIV [8]; patient four (9), by end of second week): wounds had healed and all their signs and symptoms were over | haemoglobin rise (HIV [8]; patient four (9), by the sixth month): 1 g % | weight gain (HIV [8]; patient four (9), in six months): 1 kg | haemoglobin after treatment (HIV [8]; patient four (9), sixth month): 11.9% | oral ulcers, genital wounds and lymph node enlargement (HIV [8]; patient one (2)): over by the second week of treatment | time until able to go to the toilet and bathroom unaided (HIV [8]; patient one (2)): ≤ 5 days | body weight before treatment (HIV [8]; patient one (2), baseline): 41 kg | weight gain (HIV [8]; patient one (2), in 3 weeks): 2.5 kg | rashes and pigmentation (HIV [8]; patient six (6), in 2 weeks of treatment): The rashes subsided and the pigmentation returned to normal skin colour | time until signs and symptoms were over (HIV [8]; patient three (1)): six | haemoglobin before treatment (HIV [8]; patient three (1), baseline): 11.69% | lymphocytes (relative) before treatment (HIV [8]; patient three (1), baseline): 39% | body weight before treatment (HIV [8]; patient three (8), baseline): 44 kg | haemoglobin before treatment (HIV [8]; patient three (8), baseline): 12.1% | functional recovery (house work, shopping) (HIV [8]; patient two (7), in 5 days of treatment): able to do their house work, go for salary from their place of work and even go to the market for shopping | immunological improvement (HIV [9]; 200 mg tds orally, two weeks): there is immunological improvement | mean increase in CD4 (HIV [9]; 200 mg tds orally, two weeks, 7 patients): 208 | CD4:CD8 ratio change (HIV [9]; [18]): rose | CD8 change (HIV [9]; [18]): decreased to varying levels in all of the individuals | Increase in CD4 after treatment (HIV [9]; 200 mg tds orally, two weeks, three months after treatment, per patient): 531 CD4/mm^3 and 72 CD4/mm^3 and 160 CD4/mm^3 and 40 CD4/mm^3 and 184 CD4/mm^3 and 102 CD4/mm^3 and 465 CD4/mm^3 | CD4/CD8 Ratio Before Treatment (HIV [9]; per patient, baseline): 0.845 and 0.00 and 0.7 and 0.3 and 0.29 and 0.9 | CD4 Count Before Treatment (HIV [9]; per patient, baseline): 561 CD4/mm3 and 50 CD4/mm3 and 650 CD4/mm3 and 460 CD4/mm3 and 300 CD4/mm3 and 1122 CD4/mm3 and 1014 CD4/mm3 | CD4/CD8 Ratio After Treatment (HIV [9]; [19]): 1.632 and 0.06 and 2.2 and 0.2 and 0.564 and 0.78 and 1.11 | CD4 Count After Treatment (HIV [9]; [19]): 1092 CD4/mm3 and 112 CD4/mm3 and 810 CD4/mm3 and 500 CD4/mm3 and 484 CD4/mm3 and 1326 CD4/mm3 and 1479 CD4/mm3 | T-cell results (HIV [10]; 200 mg orally once per day, two weeks, analysed after 6 weeks, vs patient JC004 (200 mg tds)): The results were poor | CD4 count when counted earlier than three months (HIV [10]; earlier than three months): low figures even lower than before the start of treatment | time until anorexia subsides (HIV [11]; human, in vivo): ≤ 5 days | time until bed ridden patients can stand and do light work (HIV [11]; human, in vivo): ≤ 2 weeks | time until diarrhoea stops (HIV [11]; human, in vivo): 1-3 | time until fever and weakness subside (HIV [11]; human, in vivo): ≤ 1 week | time until haemoglobin normalizes (HIV [11]; human, in vivo): ≤ 1 month | time until poor vision normalizes (HIV [11]; human, in vivo): ≤ 1 week | time until rashes and hyper pigmentation of scars subside (HIV [11]; human, in vivo): ≤ 5 days | time until sleep normalizes in intensity and rhythm (HIV [11]; human, in vivo): ≤ 2 days | time until vomiting ceases (HIV [11]; human, in vivo): ≤ 2 days | time until oral and anogenital ulcers heal (HIV [11]; human, in vivo, po): ≤ 1 week | average weight gain (HIV [11]; within the first month of treatment): 5 kg | HIV particles by electron microscopy (HIV [12]): HIV particles before treatment but not 28 days after treatment | eradication of HIV from patients' blood (HIV [13]; 3 mg/kg tds, 28 days): eradicates HIV from the patients blood | HIV culture growth (HIV [13]; two patients, before treatment and after 28 days of treatment): grew HIV but not after 28 days of treatment | solubility in water (water solubility): not readily soluble in water | inactivation of hyaluronidase (hyaluronidase): inactivates an achrosomal proteolytic enzyme hyaluronidase | hair (HIV [14]; patient four (9), by 6 weeks of treatment): their thin silk hair had reverted to the normal Afro type | body weight after treatment (HIV [14]; [20]): 53 kg | haemoglobin after treatment (HIV [14]; [20]): 14.9%

Cc1cn([C@H]2C[C@H](N=[N+]=[N-])[C@@H](CO)O2)c(=O)[nH]c1=O [AZT]
bone marrow depression and anaemia (HIV [15]): causes bone marrow depression and anaemia in presence of normal serum iron | reported equivalent increase in CD4 (HIV [16]): 81
